Data set [1] deals with T1, Aromatase (Homo sapiens, UniProt P11511).
T1 sequence (P11511 whole entry): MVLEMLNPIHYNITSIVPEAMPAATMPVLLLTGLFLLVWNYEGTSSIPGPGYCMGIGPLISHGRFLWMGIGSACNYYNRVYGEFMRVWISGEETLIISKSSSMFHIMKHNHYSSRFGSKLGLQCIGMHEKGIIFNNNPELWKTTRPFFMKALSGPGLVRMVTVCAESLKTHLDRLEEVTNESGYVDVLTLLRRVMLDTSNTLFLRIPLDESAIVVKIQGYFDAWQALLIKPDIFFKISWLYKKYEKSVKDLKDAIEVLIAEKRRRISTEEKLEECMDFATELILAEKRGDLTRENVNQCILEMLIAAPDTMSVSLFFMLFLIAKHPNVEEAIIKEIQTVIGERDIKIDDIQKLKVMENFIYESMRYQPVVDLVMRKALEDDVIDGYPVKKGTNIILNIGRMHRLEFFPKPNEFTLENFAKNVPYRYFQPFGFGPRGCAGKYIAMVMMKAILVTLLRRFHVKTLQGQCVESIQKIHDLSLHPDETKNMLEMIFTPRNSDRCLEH
It is filed as cell-based, JEG-3.

Data set [2] concerns the target CYP450 (isoform not stated) (Homo sapiens, UniProt P04798+P05177+P05181+P08684+P10632+P10635+P11509+P11712+P13584+P20813+P20815+P20853+P24462+P24903+P33260+P33261+P51589+P78329+P98187+Q02928+Q08477+Q16678+Q16696+Q5TCH4+Q6VVX0+Q7Z449+Q8TAV3+Q96SQ9+Q9HB55). Description: in vitro. Particulars: Liver.
Data set [3] deals with T2, Steroid 17-alpha-hydroxylase/17,20 lyase (Homo sapiens, UniProt P05093).
T2 sequence (P05093 whole entry): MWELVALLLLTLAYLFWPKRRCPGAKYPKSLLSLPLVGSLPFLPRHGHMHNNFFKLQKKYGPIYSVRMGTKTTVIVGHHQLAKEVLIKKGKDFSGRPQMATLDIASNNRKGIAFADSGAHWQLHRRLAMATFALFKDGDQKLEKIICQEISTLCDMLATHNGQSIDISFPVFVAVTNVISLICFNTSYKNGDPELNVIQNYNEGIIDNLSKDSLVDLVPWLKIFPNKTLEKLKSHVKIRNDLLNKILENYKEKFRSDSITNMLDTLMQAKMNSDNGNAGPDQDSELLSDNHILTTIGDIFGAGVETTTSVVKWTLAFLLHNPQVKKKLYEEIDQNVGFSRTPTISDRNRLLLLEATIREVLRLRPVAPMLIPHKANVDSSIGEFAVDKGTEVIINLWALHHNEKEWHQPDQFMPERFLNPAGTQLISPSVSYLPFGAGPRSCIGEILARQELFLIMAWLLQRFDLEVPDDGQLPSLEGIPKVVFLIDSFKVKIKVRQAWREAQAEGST
It is filed as ADME.
Description: Inhibition of human testicular CYP17

The target in data set [4] is T3, Cytochrome P450 1B1 (Homo sapiens, UniProt Q16678).
T3 sequence (Q16678 whole entry): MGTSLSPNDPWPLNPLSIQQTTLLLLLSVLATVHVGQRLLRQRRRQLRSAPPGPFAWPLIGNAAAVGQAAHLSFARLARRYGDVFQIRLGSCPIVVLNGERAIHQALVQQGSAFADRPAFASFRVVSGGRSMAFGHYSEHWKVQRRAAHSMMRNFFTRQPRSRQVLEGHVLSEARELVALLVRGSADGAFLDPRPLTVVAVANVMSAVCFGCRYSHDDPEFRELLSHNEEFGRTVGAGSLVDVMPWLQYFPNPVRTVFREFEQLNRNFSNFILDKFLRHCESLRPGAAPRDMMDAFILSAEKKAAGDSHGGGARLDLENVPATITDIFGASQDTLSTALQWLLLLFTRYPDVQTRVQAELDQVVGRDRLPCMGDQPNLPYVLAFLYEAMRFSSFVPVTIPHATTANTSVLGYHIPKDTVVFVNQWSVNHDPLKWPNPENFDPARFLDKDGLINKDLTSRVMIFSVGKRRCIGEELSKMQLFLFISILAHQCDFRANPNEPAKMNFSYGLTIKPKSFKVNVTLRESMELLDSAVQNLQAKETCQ
Description: Inhibition of recombinant human CYP1B1 using 7-ethyl-0-resorufin as substrate incubated for 30 mins in presence of NADPH

The target of data set [5] is Cytochrome P450 2C19 (Homo sapiens, UniProt P33261).
Chain of Cytochrome P450 2C19 (P33261 whole entry): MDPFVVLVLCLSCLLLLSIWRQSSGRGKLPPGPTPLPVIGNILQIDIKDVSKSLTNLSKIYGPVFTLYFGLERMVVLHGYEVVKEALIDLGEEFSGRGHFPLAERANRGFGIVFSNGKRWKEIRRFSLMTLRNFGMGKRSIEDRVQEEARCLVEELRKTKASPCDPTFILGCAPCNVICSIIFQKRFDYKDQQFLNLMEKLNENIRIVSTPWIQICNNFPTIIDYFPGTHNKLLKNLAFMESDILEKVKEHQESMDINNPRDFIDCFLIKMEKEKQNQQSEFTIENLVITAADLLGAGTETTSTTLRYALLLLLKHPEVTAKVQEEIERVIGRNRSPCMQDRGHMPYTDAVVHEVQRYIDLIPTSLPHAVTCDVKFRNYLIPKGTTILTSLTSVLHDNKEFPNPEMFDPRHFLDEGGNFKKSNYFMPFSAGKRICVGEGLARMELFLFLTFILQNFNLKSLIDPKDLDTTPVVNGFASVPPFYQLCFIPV
Description: Inhibition of CYP2C19 in human liver microsomes incubated in presence NADPH

On to `N#Cc1ccccc1-c1cccc(Cn2cncn2)c1`, for which the half-inhibitory concentration (IC50) in data set [1] is 0.00701 µM. In other words, the single-digit nanomolar range. With `Oc1ccc2c(c1)CCC1C(c3ccncc3)C21` (stereo unspecified), the IC50 in data set [2] was 2810 µM. For `c1ccc2c(c1)CCC1C(c3ccncc3)C21` (stereo unspecified), in data set [3], the IC50 is 39.5 µM. With `COc1ccc(/C=C/c2c(CC=C(C)C)c(O)cc(O)c2CC=C(C)C)cc1`, the negative-log IC50 (pIC50) in data set [4] stood at 13.573. For `CCn1cc(C(c2ccc(Cl)cc2)n2ccnn2)c2cc(Br)ccc21` (stereo unspecified), the IC50 in data set [5] is 10 µM. `Oc1cccc2c1CCC1C(c3ccncc3)C21` (stereo unspecified) showed an IC50 in data set [2] of 6.05 µM.

The values above are taken from ChEMBL document CHEMBL5375941, “Combating breast cancer with non-steroidal aromatase inhibitors (NSAIs): Understanding the chemico-biological interactions through comparative SAR/QSAR study” (Eur J Med Chem, 2017).
